This experiment deals with T1, RORc ligand binding domain (Homo sapiens, UniProt P51449).
T1 sequence (P51449 269-508 limits assumed): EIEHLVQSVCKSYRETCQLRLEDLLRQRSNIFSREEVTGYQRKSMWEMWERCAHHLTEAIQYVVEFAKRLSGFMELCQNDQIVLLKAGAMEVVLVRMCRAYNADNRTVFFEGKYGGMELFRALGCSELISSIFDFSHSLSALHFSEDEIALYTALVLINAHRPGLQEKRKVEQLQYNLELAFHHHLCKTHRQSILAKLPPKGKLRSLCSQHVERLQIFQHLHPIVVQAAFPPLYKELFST
In words: In Vitro RORc Ligand Binding Assay. The conditions noted are these: RORc IC50, radioligand 25-[3H]hydroxycholesterol 6 nM; 0.6 ug/mL RORc receptor; 3 h at 25° C.

What is called IC50 is the concentration at which inhibition is half-maximal. Read a low IC50 as higher potency. In the case of `C[C@H](O)CNC(=O)c1cccc([C@@]23CC[C@@H](c4cc(-c5c(F)cccc5F)nnc42)C3(C)C)n1` [Example 61, 6-((5R,8S)-3-(2,6-difluorophenyl)-9,9-dimethyl-5,6,7,8-tetrahydro-5,8-methanocinnolin-8-yl)-N-((S)-2-hydroxypropyl)picolinamide], the half-maximal inhibitory concentration (IC50) amounted to 34.8 nM. This lies in the double-digit nanomolar range.

The compound `COC(=O)c1cnc(C)c([C@@]23CC[C@@H](c4cc(-c5c(F)cccc5F)nnc42)C3(C)C)n1` [Example 169, methyl 6-((5R,8S)-3-(2,6-difluorophenyl)-9,9-dimethyl-5,6,7,8-tetrahydro-5,8-methanocinnolin-8-yl)-5-methylpyrazine-2-carboxylate] showed a 50% inhibitory concentration (IC50) of 10 nM.

In turn, `CC(C)(O)c1coc(-c2nccc([C@@]34CC[C@@H](c5cc(-c6c(F)cccc6F)nnc53)C4(C)C)n2)n1` [Example 350] yielded an IC50 of 16.4 nM. This IC50 lies about 1.6-fold higher than the previous one.

Compound `Cc1ccn(-c2nccc([C@@]34CC[C@@H](c5cc(-c6c(F)cccc6F)nnc53)C4(C)C)n2)n1` [Example 367] gave an IC50 of 3.1 nM.

On to `CC1(C)[C@H]2CC[C@]1(c1cc(N)ccn1)c1nnc(-c3c(F)cccc3F)cc12` [Example 71], for which the IC50 turned out to be 1510 nM.

For the compound `Cn1c([C@@]23CC[C@@H](c4cc(-c5c(F)cccc5F)nnc42)C3(C)C)ccc(C#N)c1=O` [Example 8, 6-((5R,8S)-3-(2,6-difluorophenyl)-9,9-dimethyl-5,6,7,8-tetrahydro-5,8-methanocinnolin-8-yl)-1-methyl-2-oxo-1,2-dihydropyridine-3-carbonitrile], the IC50 came out at 108 nM.

Compound `CC1(C)[C@H]2CC[C@]1(c1cncc(C(=O)NC3(CO)COC3)n1)c1nnc(-c3c(F)cccc3F)cc12` [Example 147, 6-((5R,8S)-3-(2,6-difluorophenyl)-9,9-dimethyl-5,6,7,8-tetrahydro-5,8-methanocinnolin-8-yl)-N-(3-(hydroxymethyl)oxetan-3-yl)pyrazine-2-carboxamide] registered an IC50 of 50.6 nM.

Turning to `CC(C)(C)OC(=O)N1CCCC(c2nccc([C@@]34CC[C@@H](c5cc(-c6c(F)cccc6F)nnc53)C4(C)C)n2)C1` (some centres unmarked) [Example 362], the IC50 was 15.8 nM.

Compound `CC1(C)[C@H]2CC[C@]1(c1nc(C(=O)NCCO)ncc1Br)c1nnc(-c3c(F)cccc3F)cc12` [Example 193] displayed an IC50 of 57.7 nM.

`CC1(C)[C@H]2CC[C@]1(c1ccnc(N3CCOCC3)n1)c1nnc(-c3c(F)cccc3F)cc12` [Example 328] had an IC50 of 2.2 nM.

On to `C[C@@H](O)CNC(=O)c1cccc([C@@]23CC[C@@H](c4cc(-c5c(F)cccc5F)nnc42)C3(C)C)n1` [Example 62, 6-((5R,8S)-3-(2,6-difluorophenyl)-9,9-dimethyl-5,6,7,8-tetrahydro-5,8-methanocinnolin-8-yl)-N-((R)-2-hydroxypropyl)picolinamide], for which the IC50 was found to be 28.8 nM.

`CC1(C)[C@H]2CC[C@]1(c1ccnc(-n3nccn3)n1)c1nnc(-c3c(F)cccc3F)cc12` [Example 189] came in with a 50% inhibitory concentration (IC50) of 14.8 nM.

The compound `CC(C)(O)c1noc(-c2cccc([C@@]34CC[C@@H](c5cc(-c6c(F)cccc6F)nnc53)C4(C)C)n2)n1` [Example 314, 2-(5-(6-((5R,8S)-3-(2,6-difluorophenyl)-9,9-dimethyl-5,6,7,8-tetrahydro-5,8-methanocinnolin-8-yl)pyridin-2-yl)-1,2,4-oxadiazol-3-yl)propan-2-ol] yielded an IC50 of 1.5 nM.

Regarding `CC1(C)[C@H]2CC[C@]1(c1ccnc(N3CC[C@H](O)C3)n1)c1nnc(-c3c(F)cccc3F)cc12` [Example 330], the concentration for half-maximal inhibition (IC50) worked out at 4.6 nM.

With `CC(=O)Nc1cncc([C@@]23CC[C@@H](c4cc(-c5c(F)cccc5F)nnc42)C3(C)C)n1` [Example 32, N-(6-((5R,8S)-3-(2,6-difluorophenyl)-9,9-dimethyl-5,6,7,8-tetrahydro-5,8-methanocinnolin-8-yl)pyrazin-2-yl)acetamide], the IC50 amounted to 22 nM.

As to `CC1(C)[C@H]2CC[C@]1(c1cnnc(N)n1)c1nnc(-c3c(F)cccc3F)cc12` [Example 127, 5-((5R,8S)-3-(2,6-difluorophenyl)-9,9-dimethyl-5,6,7,8-tetrahydro-5,8-methanocinnolin-8-yl)-1,2,4-triazin-3-amine], the IC50 was found to be 109 nM.

As for `CC(C)c1ncn(-c2nccc([C@@]34CC[C@@H](c5cc(-c6c(F)cccc6F)nnc53)C4(C)C)n2)n1` [Example 273], the IC50 is 5.2 nM.

In turn, `CC1(C)[C@H]2CC[C@]1(c1cncc(C(=O)O)n1)c1nnc(-c3c(F)cccc3F)cc12` [Example 11, 6-((5R,8S)-3-(2,6-difluorophenyl)-9,9-dimethyl-5,6,7,8-tetrahydro-5,8-methanocinnolin-8-yl)pyrazine-2-carboxylic acid] came in with an IC50 of 38.9 nM.

In the case of `COC(=O)c1n[nH]c(=O)cc1[C@@]12CC[C@@H](c3cc(-c4c(F)cccc4F)nnc31)C2(C)C` [Example 436], the IC50 is 192 nM. Against the preceding compound, the IC50 is about 4.9-fold higher.

`CNC(=O)c1ccnc([C@@]23CC[C@@H](c4cc(-c5c(F)cccc5F)nnc42)C3(C)C)n1` [Example 47, 2-((5R,8R)-3-(2,6-difluorophenyl)-9,9-dimethyl-5,6,7,8-tetrahydro-5,8-methanocinnolin-8-yl)-N-methylpyrimidine-4-carboxamide]: the 50% inhibitory concentration (IC50) came out at 58.3 nM.

Take `CC1(C)[C@@H]2CC[C@@]1(c1cncc(-n3ccc(CO)n3)n1)c1nnc(-c3c(F)cccc3F)cc12` [Example 381, (1-(6-((5S,8R)-3-(2,6-difluorophenyl)-9,9-dimethyl-5,6,7,8-tetrahydro-5,8-methanocinnolin-8-yl)pyrazin-2-yl)-1H-pyrazol-3-yl)methanol]: the IC50 stood at 6 nM.

With `CC1(C)[C@H]2CC[C@]1(c1cncc(C(=O)NCCS(C)(=O)=O)n1)c1nnc(-c3c(F)cccc3F)cc12` [Example 110, 6-((5R,8S)-3-(2,6-difluorophenyl)-9.9-dimethyl-5,6,7,8-tetrahydro-5,8-methanocinnolin-8-yl)-N-(2-(methylsulfonyl)ethyl)pyrazine-2-carboxamide], the half-inhibitory concentration (IC50) stood at 51.4 nM. This IC50 is about 8.6-fold higher than that of the compound before.

As to `CC[C@@](C)(O)c1coc(-c2cncc([C@@]34CC[C@@H](c5cc(-c6c(F)cccc6F)nnc53)C4(C)C)n2)n1` [Example 430, (R)-2-(2-(6-((5R,8S)-3-(2,6-difluorophenyl)-9,9-dimethyl-5,6,7,8-tetrahydro-5,8-methanocinnolin-8-yl)pyrazin-2-yl)oxazol-4-yl)butan-2-ol], the IC50 is 15 nM.

Consider `CC1(C)[C@H]2CC[C@]1(c1ccnc(-n3cnc(=O)[nH]3)n1)c1nnc(-c3c(F)cccc3F)cc12` [Example 359], for which the IC50 stood at 17.3 nM.

As for `C[C@H](O)c1nnc(-c2cncc([C@@]34CC[C@@H](c5cc(-c6c(F)cccc6F)nnc53)C4(C)C)n2)[nH]1` [Example 224, (S)-1-(5-(6-((5R,8S)-3-(2,6-difluorophenyl)-9,9-dimethyl-5,6,7,8-tetrahydro-5,8-methanocinnolin-8-yl)pyrazin-2-yl)-4H-1,2,4-triazol-3-yl)ethanol], the IC50 worked out at 12.4 nM.

The compound `CC(C)(O)c1nnc(-c2cccc([C@@]34CC[C@@H](c5cc(-c6c(F)cccc6F)nnc53)C4(C)C)n2)[nH]1` [Example 214, 2-(5-(6-((5R,8S)-3-(2,6-difluorophenyl)-9,9-dimethyl-5,6,7,8-tetrahydro-5,8-methanocinnolin-8-yl)pyridin-2-yl)-4H-1,2,4-triazol-3-yl)propan-2-ol] had an IC50 of 30.5 nM.

For the compound `Cc1coc(-c2cncc([C@@]34CC[C@@H](c5cc(-c6c(F)cccc6F)nnc53)C4(C)C)n2)n1` [Example 117, 2-(6-((5R,8S)-3-(2,6-difluorophenyl)-9,9-dimethyl-5,6,7,8-tetrahydro-5,8-methanocinnolin-8-yl)pyrazin-2-yl)-4-methyloxazole], the half-maximal inhibitory concentration (IC50) was 7.6 nM.

The compound `Cc1cnc(-c2cncc([C@@]34CC[C@@H](c5cc(-c6c(F)cccc6F)nnc53)C4(C)C)n2)o1` [Example 88, 2-(6-((5R,8S)-3-(2,6-difluorophenyl)-9,9-dimethyl-5,6,7,8-tetrahydro-5,8-methanocinnolin-8-yl)pyrazin-2-yl)-5-methyloxazole] gave an IC50 of 5.4 nM.

Compound `COC(=O)c1ccn(-c2nccc([C@@]34CC[C@@H](c5cc(-c6c(F)cccc6F)nnc53)C4(C)C)n2)n1` [Example 282] returned an IC50 of 4.9 nM.

For `Cc1nnc(-c2nccc([C@@]34CC[C@@H](c5cc(-c6c(F)cccc6F)nnc53)C4(C)C)n2)[nH]1` [Example 178], the IC50 was determined as 27.8 nM.

Compound `CC1(C)[C@H]2CC[C@]1(c1cncc(NS(C)(=O)=O)n1)c1nnc(-c3c(F)cccc3F)cc12` [Example 34, N-(6-((5R,8S)-3-(2,6-difluorophenyl)-9,9-dimethyl-5,6,7,8-tetrahydro-5,8-methanocinnolin-8-yl)pyrazin-2-yl)methanesulfonamide] registered an IC50 of 75.9 nM. This IC50 is about 2.7-fold higher than that of the compound before.

`CC1(C)[C@H]2CC[C@]1(c1cncc(-c3nc(CC(N)=O)co3)n1)c1nnc(-c3c(F)cccc3F)cc12` [Example 384, 2-(2-(6-((5R,8S)-3-(2,6-difluorophenyl)-9,9-dimethyl-5,6,7,8-tetrahydro-5,8-methanocinnolin-8-yl)pyrazin-2-yl)oxazol-4-yl)acetamide] registered an IC50 of 6.9 nM.

On to `CC1(C)[C@H]2CC[C@]1(c1ccnc(-n3cnc(C(N)=O)c3)n1)c1nnc(-c3c(F)cccc3F)cc12` [Example 261], for which the IC50 came out at 11.7 nM.

`CC1(C)[C@H]2CC[C@]1(c1cncc(C(=O)N[C@H]3C[C@@H](O)C3)n1)c1nnc(-c3c(F)cccc3F)cc12` [Example 93, 6-((5R,8S)-3-(2,6-difluorophenyl)-9,9-dimethyl-5,6,7,8-tetrahydro-5,8-methanocinnolin-8-yl)-N-((1s,3R)-3-hydroxycyclobutyl)pyrazine-2-carboxamide] registered an IC50 of 31.8 nM.

In the case of `CC(C)(O)c1nnc(-c2ncc(Cl)c([C@@]34CC[C@@H](c5cc(-c6c(F)cccc6F)nnc53)C4(C)C)n2)[nH]1` [Example 249], the IC50 turned out to be 50.1 nM.
